Source: article PMC9516332 (Frontiers in Oncology, 2022)
Like-named read-outs stand apart in the source and are kept apart here.

Test system: 134 cancer cell lines
Assay: Cell viability assay (ATPlite, 72 hours), IC50 on cancer cell line panel

In the case of CCn1c(=O)c(-c2cc(NC(=O)Nc3ccccc3)c(F)cc2Br)cc2cnc(NC)cc21 [ripretinib], the IC50 (Homo sapiens, Kasumi 1, read-out: IC50 in cell proliferation assay) is reported as 0.055 µM, the IC50 (Homo sapiens, LC-2-ad, read-out: IC50 in cell proliferation assay) is reported as 5.38 µM and the IC50 (Homo sapiens, LNCaP-Clone-FGC, read-out: IC50 in cell proliferation assay) is reported as 4.88 µM. For the same molecule, the IC50 (Homo sapiens, LS174T, read-out: IC50 in cell proliferation assay) was 9.31 µM, the IC50 (Homo sapiens, LS-411N, read-out: IC50 in cell proliferation assay) was 2.72 µM and the IC50 (Homo sapiens, LoVo, read-out: IC50 in cell proliferation assay) was 3.04 µM. For the same molecule, the IC50 (Homo sapiens, MCF7, read-out: IC50 in cell proliferation assay) was greater than 31.6 µM, the IC50 (Homo sapiens, MDA-MB-231, read-out: IC50 in cell proliferation assay) was 1.26 µM and the IC50 (Homo sapiens, MDA-MB-453, read-out: IC50 in cell proliferation assay) was 3.53 µM. For the same molecule, the IC50 (Homo sapiens, MDA-MB-468, read-out: IC50 in cell proliferation assay) was 2.47 µM, the IC50 (Homo sapiens, MG-63, read-out: IC50 in cell proliferation assay) was 12.3 µM and the IC50 (Homo sapiens, MIA PaCa-2, read-out: IC50 in cell proliferation assay) was 24.2 µM. The IC50 (Homo sapiens, MKN-45, read-out: IC50 in cell proliferation assay) was greater than 31.6 µM, the IC50 (Homo sapiens, MOLM-13, read-out: IC50 in cell proliferation assay) was 0.238 µM and the IC50 (Homo sapiens, MOLT-4, read-out: IC50 in cell proliferation assay) was 3.83 µM. For the same molecule, the IC50 (Homo sapiens, MV4-11, read-out: IC50 in cell proliferation assay) was 0.578 µM, the IC50 (Homo sapiens, MeWo, read-out: IC50 in cell proliferation assay) was 3.58 µM and the IC50 (Homo sapiens, NCCIT, read-out: IC50 in cell proliferation assay) was 1.73 µM. It also gave an IC50 (Homo sapiens, NCI-H82, read-out: IC50 in cell proliferation assay) of 1.11 µM, an IC50 (Homo sapiens, NCI-H460, read-out: IC50 in cell proliferation assay) of 1.62 µM and an IC50 (Homo sapiens, NCI-H661, read-out: IC50 in cell proliferation assay) of 11.8 µM. The IC50 (Homo sapiens, NCI-H716, read-out: IC50 in cell proliferation assay) was 1.44 µM, the IC50 (Homo sapiens, NCI-H1650, read-out: IC50 in cell proliferation assay) was greater than 31.6 µM and the IC50 (Homo sapiens, NCI-H1975, read-out: IC50 in cell proliferation assay) was 2.17 µM. It also gave an IC50 (Homo sapiens, NCI-H2228, read-out: IC50 in cell proliferation assay) of 4.14 µM, an IC50 (Homo sapiens, OVCAR-3, read-out: IC50 in cell proliferation assay) of 2 µM and an IC50 (Homo sapiens, PFSK-1, read-out: IC50 in cell proliferation assay) of 8 µM. The IC50 (Homo sapiens, RL95-2, read-out: IC50 in cell proliferation assay) was 1.13 µM, the IC50 (Homo sapiens, RPMI-7951, read-out: IC50 in cell proliferation assay) was 6.45 µM and the IC50 (Homo sapiens, RS4-11, read-out: IC50 in cell proliferation assay) was 1.17 µM. It also gave an IC50 (Homo sapiens, Rec1, read-out: IC50 in cell proliferation assay) of 5.27 µM, an IC50 (Homo sapiens, SHP77, read-out: IC50 in cell proliferation assay) greater than 31.6 µM and an IC50 (Homo sapiens, SK-BR-3, read-out: IC50 in cell proliferation assay) of 2.04 µM. The IC50 (Homo sapiens, SK-N-AS, read-out: IC50 in cell proliferation assay) was 2.37 µM, the IC50 (Homo sapiens, SK-N-FI, read-out: IC50 in cell proliferation assay) was 2.92 µM and the IC50 (Homo sapiens, SK-N-MC, read-out: IC50 in cell proliferation assay) was 4.76 µM. The IC50 (Homo sapiens, SK-N-SH, read-out: IC50 in cell proliferation assay) was 3.61 µM, the IC50 (Homo sapiens, SNU-5, read-out: IC50 in cell proliferation assay) was 30.2 µM and the IC50 (Homo sapiens, SNU-16, read-out: IC50 in cell proliferation assay) was 0.773 µM. For the same molecule, the IC50 (Homo sapiens, SNU-C2B, read-out: IC50 in cell proliferation assay) was 15.7 µM, the IC50 (Homo sapiens, SU-DHL-1, read-out: IC50 in cell proliferation assay) was 2.78 µM and the IC50 (Homo sapiens, SU-DHL-6, read-out: IC50 in cell proliferation assay) was 8.19 µM. It also gave an IC50 (Homo sapiens, SUP-T1, read-out: IC50 in cell proliferation assay) of 2.46 µM, an IC50 (Homo sapiens, SW48, read-out: IC50 in cell proliferation assay) of 2.84 µM and an IC50 (Homo sapiens, SW480, read-out: IC50 in cell proliferation assay) of 3.6 µM. It also gave an IC50 (Homo sapiens, SW626, read-out: IC50 in cell proliferation assay) of 3.91 µM, an IC50 (Homo sapiens, SW780, read-out: IC50 in cell proliferation assay) of 30.7 µM and an IC50 (Homo sapiens, SW837, read-out: IC50 in cell proliferation assay) of 7.36 µM. It also gave an IC50 (Homo sapiens, SW872, read-out: IC50 in cell proliferation assay) of 2.46 µM, an IC50 (Homo sapiens, SW900, read-out: IC50 in cell proliferation assay) of 9.13 µM and an IC50 (Homo sapiens, SW948, read-out: IC50 in cell proliferation assay) of 1.68 µM. The IC50 (Homo sapiens, SW982, read-out: IC50 in cell proliferation assay) was 2.26 µM, the IC50 (Homo sapiens, SW-620, read-out: IC50 in cell proliferation assay) was 1.9 µM and the IC50 (Homo sapiens, T98G, read-out: IC50 in cell proliferation assay) was 3.47 µM. It also gave an IC50 (Homo sapiens, TCC-SUP, read-out: IC50 in cell proliferation assay) of 1.29 µM, an IC50 (Homo sapiens, THP-1, read-out: IC50 in cell proliferation assay) of 0.981 µM and an IC50 (Homo sapiens, U2OS, read-out: IC50 in cell proliferation assay) of 3.38 µM. It also gave an IC50 (Homo sapiens, U-87 MG, read-out: IC50 in cell proliferation assay) greater than 31.6 µM, an IC50 (Homo sapiens, U-118-MG, read-out: IC50 in cell proliferation assay) of 4.22 µM and an IC50 (Homo sapiens, UMUC3, read-out: IC50 in cell proliferation assay) of 2.89 µM. For the same molecule, the IC50 (Hs766T, read-out: IC50 in cell proliferation assay) was 4.7 µM, the IC50 (L-82, read-out: IC50 in cell proliferation assay) was 3.03 µM and the IC50 (Rh30, read-out: IC50 in cell proliferation assay) was 3 µM.
